Source: patent publication US20130121930A1, “Use of Glyceryl Trinitrate for Treating Hematomas” (priority 2010, published 2013)

Tested on: hematomas
Test: Topically applied GTN on hematomas, general finding compared to untreated hematoma
Type: in vivo
Text: Instead of darkening of the skin, the healing occurs with a green, followed by a yellow, coloration of the affected skin area.

[1] = 1.2 to 6 mg GTN on the day of injury, then daily 0.8 to 1.6 mg GTN, compared to an untreated hematoma

O=[N+]([O-])OCC(CO[N+](=O)[O-])O[N+](=O)[O-] [GTN, glyceryl trinitrate]
typical darkening of the affected skin sites (1.2 to 6 mg GTN on the day of injury, then daily 0.8 to 1.6 mg GTN): prevents the typical darkening | individual healing phases [1]: significantly shortened | overall healing period for the treated hematomas [1]: reduced by one-half | healing of hematomas (topically applied): greatly accelerates
